Test results from patent US20070178161A1, “Use of n-acetryl-d-glucosamine in treating and controlling non-specific inflammations caused by physical or chemical factors” (priority 2003, published 2007).

How the values were obtained:
burn models = test: Burn test; type: in vivo, Wistar rats; conditions: local application of solid powder, after 3 days, 10 rats per group (control: 2)
Excerpt: 20 Wistar rats were randomly divided into two groups, i.e., control group and test group. The rats of both two groups were made as burn models by dressing gauze with hot distilled water. The rats of the control group were not treated, while the rats of the test group were locally treated by applying a solid powder of the compound of formula (I). After 3 days, 8 rats of the test group formed scab, while only 2 rats of the control group formed scab wherein liquor puris still accumulated below the scab.

[1] = test system: blunt torn thigh muscle tissue of hind limb; test: Blunt tearing tests of animals; type: in vivo, Kunming mice; conditions: 1 ml, after 7 days
Experimental: 30 Kunming mice were randomly divided into two groups, i.e., 10 mice in control group and 20 mice in test group. The mice of both two groups were treated by a blunt tearing method, wherein a non-specific injury occurred in blunt torn thigh muscle tissue of hind limb of mice. […] 10 mice of control group were normally fed, while the mice of test group were administered with an aqueous solution of N-acetyl-D-glucosamine having a concentration of 5% by weight in a dosage of 1 ml, wherein 10 mice were administered by intra-peritoneal injection, another 10 mice were administered by intramuscular injection. […] The pathological changes of the mice of control group continuously developed or maintained on the original basis, wherein 4 mice suffered paralysis of the injured limb, and another 4 mice had flex and stretch dysfunction.

Proteus Mirabilis = test: Promoting wave test (bio-wave model); type: cell-based; conditions: final concentration 0.5% in LB plate, 37° C., 9 hours
[2] = in vivo
Excerpt: The toxicological test of the compound of formula (I) includes: • 1. Acute toxicity test: including tests of oral administration, intravenous injection administration, and maximum limit amount for administration; • 2. Ames test; • 3. Micronucleus test of mouse bone marrow cell; • 4. Abnormality test of mouse sperm; • 5. Aberration test of mouse testis chromosome; • 6. Chronic lethal test; • 7. Sub-chronic toxicity (feed for 90 days) test; • 8. Traditional deformity-inducing test.

[3] = test system: burned voluntary patients; test: Test for treatment of burn; type: in vivo; conditions: sterilized powder on wound surface for 3 consecutive days, 10 patients
Excerpt: In a collaborate project of the bum department of Third Military Medical University, a sterilized N-acetyl-D-glucosamine powder in a dose dependant upon wound surface area was applied to the wound surface of 10 burned voluntary patients for consecutive 3 days.

[4] = test system: patients with surgical trauma; test: Test for treatment of surgical trauma; type: in vivo; conditions: ointment 1 g/10 g in Vaseline, painted on wounds for 3 consecutive days, 8 patients
Experimental: 8 Patients with surgical trauma, and most of them were facial and forearm abrasion. An ointment with a concentration of 1 g/10 g was prepared by mixing N-acetyl-D-glucosamine and Vaseline, and was painted on wounded parts in a dose dependent upon the area of wound surface for consecutive 3 days.

[5] = test system: patients with cold injury; test: Test for treatment of cold injury; type: in vivo; conditions: 10 wt % aqueous solution, local, 1 ml to 10 ml per day
Experimental: 20 Patients with different levels of cold injury were divided into a test group and a control group. The patients in the test group were locally treated with a 10 wt % N-acetyl-D-glucosamine aqueous solution in a dose from 1 ml to 10 ml per day according to symptoms and individual conditions.

[6] = 5% aqueous solution, i.p. or i.m., 20 mice in test group (control: 4 of 10)

| Compound | rats of the test group that formed scab (burn models) | mice that suffered paralysis of the injured limb [1, 6] | mice with flex and stretch dysfunction [1, 6] | bio-wave pattern of colony (concentric rings) (Proteus Mirabilis) | dosage at which acute toxicosis reaction had not appeared [2] | movement of injured limb / mobility of test group ([1]; 5% by weight aqueous solution, intra-peritoneal or intramuscular injection, 20 mice) | wound symptoms (edema, blood vessels, secretion) [3] | rate of cambium growth toward the center of the wound ([3]; from the 4th day) | healing of facial abrasion [4] | scar formation [4] | recovery from cold injury [5] |
| --- | --- | --- | --- | --- | --- | --- | --- | --- | --- | --- | --- |
| CC(=O)N[C@H]1C(O)O[C@H](CO)[C@@H](O)[C@@H]1O.Cl (stereo partly drawn) [N-acetyl-D-glucosamine hydrochloride] | 6 | – | – | – | – | – | – | – | – | – | – |
| CC(=O)N[C@H]1C(O)O[C@H](CO)[C@@H](O)[C@@H]1O.O=S(=O)(O)O (stereo partly drawn) [N-acetyl-D-glucosamine sulfate] | – | 2 | 2 | – | – | – | – | – | – | – | – |
| CC(=O)N[C@H]1C(O)O[C@H](CO)[C@@H](O)[C@@H]1O (stereo partly drawn) [compound of formula (I), N-acetyl-D-glucosamine] | 8 | one | – | many fine waves on each ring | more than 2 g/kg | could free-run | edema was alleviated, blood vessel shrank, and secretion was reduced | 1-2 mm per day | rapidly healed | no scar was found on face | early recovery, and then inflammation and edema were eliminated |
